Experimental data reported in paper PMC7915026, “Sulfaguanidine Hybrid with Some New Pyridine-2-One Derivatives: Design, Synthesis, and Antimicrobial Activity against Multidrug-Resistant Bacteria as Dual DNA Gyrase and DHFR Inhibitors” (Antibiotics, 2021).
Converted amounts (≈) assume the structure as drawn. Where two headings read alike, the source gives them in different places.

Tests used:
P. aeruginosa ATCC 27853 [1] = assay: MIC and MBC determination; assay type: cell-based; conditions: Pseudomonas aeruginosa, ATCC27853, P. aeruginosa
S. aureus ATCC 29213 [2] = assay: MIC and MBC determination; assay type: cell-based; conditions: Staphylococcus aureus, ATCC29213, S. aureus
S. aureus DNA gyrase = S. aureus DNA gyrase (Staphylococcus aureus, UniProt P0A0K8+P20831); assay: In vitro DNA gyrase supercoiling enzymatic assay; assay type: biochemical
[3] = tested on: F. oxysporum (RCMB 008002); assay: MIC and MFC determination; assay type: cell-based
E. coli ATCC 25922 [4] = assay: MIC and MBC determination; assay type: cell-based; conditions: Escherichia coli, ATCC25922, E. coli
B. subtilis ATCC 6633 [5] = assay: MIC and MBC determination; assay type: cell-based; conditions: Bacillus subtilis, ATCC6633, B. subtilis
B. subtilis ATCC 6633 [6] = assay: Inhibition zone, paper disk/agar diffusion; assay type: cell-based; conditions: B. subtilis; Na = no activity
Excerpt: (§1) The antimicrobial activity performed at the bacteriology laboratory, Botany and Microbiology Department, Faculty of Science, Al-Azhar University, Cairo, Egypt. The inhibition zone (IZ) of the tested derivatives expressed as the diameter (mm) according to the agar plate diffusion method.

C. albicans (ATCC 10231) [7] = assay: Inhibition zone, paper disk/agar diffusion; assay type: cell-based; conditions: Na = no activity
Excerpt: as §1

S. typhi ATCC 6539 = assay: Inhibition zone, paper disk/agar diffusion; assay type: cell-based; conditions: S. typhi; Na = no activity
Excerpt: as §1

E. coli ATCC 25922 [8] = assay: Inhibition zone, paper disk/agar diffusion; assay type: cell-based; conditions: E. coli; Na = no activity
Excerpt: as §1

P. aeruginosa ATCC 27853 [9] = assay: Inhibition zone, paper disk/agar diffusion; assay type: cell-based; conditions: P. aeruginosa; Na = no activity
Excerpt: as §1

E. faecalis ATCC 29212 [10] = assay: Inhibition zone, paper disk/agar diffusion; assay type: cell-based; conditions: E. faecalis; Na = no activity
Excerpt: as §1

[11] = tested on: F. oxysporum (RCMB 008002); assay: Inhibition zone, paper disk/agar diffusion; assay type: cell-based; conditions: Na = no activity
Excerpt: as §1

S. aureus ATCC 29213 [12] = assay: Inhibition zone, paper disk/agar diffusion; assay type: cell-based; conditions: S. aureus; Na = no activity
Excerpt: as §1

spleen and thymus = assay: In vivo immunomodulation: immune organ weight and indexes; parameters: Spleen index: unit not given here; conditions: mice
Excerpt: Both the spleen and thymus have important antibacterial and fungal immune organ responses, and any change in weight, and indexes can reflect the level of immune regulation. Additionally, the relative spleen and thymus indexes are important indices for nonspecific immunity and potential immunomodulatory compounds that increase the spleen and thymus weight. This increase is due to immune cells’ stimulation in the spleen and thymus. […]

E. coli ATCC BAA-196 [13] = assay: Inhibition zone against multidrug-resistant bacteria; assay type: cell-based; conditions: MDRB E. coli ATCC BAA-196
Excerpt: (§2) Norfloxacin was used as a positive control for the multidrug resistance study.
as §1

S. aureus ATCC 33591 [14] = assay: as above; assay type: cell-based; conditions: MDRB S. aureus ATCC 33591
Excerpt: as §2, §1

[15] = tested on: P. aeruginosa ATCC BAA-2111; assay: as above; assay type: cell-based; conditions: MDRB P. aeruginosa ATCC BAA-2111
Excerpt: as §2, §1

S. aureus ATCC 43300 [16] = assay: as above; assay type: cell-based; conditions: MDRB S. aureus ATCC 43300
Excerpt: as §2, §1

E. faecalis ATCC 29212 [17] = assay: MIC and MBC determination; assay type: cell-based; conditions: Enterococcus faecalis, ATCC29212, E. faecalis
[18] = tested on: CD4+ and CD8+ T lymphocytes; assay: In vivo T lymphocyte subsets from peripheral blood, flow cytometry; conditions: mice
Excerpt: Activation of immune cells as CD4^+ and CD8^+ T cells is one possible mechanism of a drug’s immune stimulus activity. An increase in these cells is thought to be a good indicator of an active immune response to infections. So, our work extended to study the effect of the most promising derivatives (2d, 8, and 11) on T lymphocyte subsets (CD4^+ and CD8^+) from peripheral blood, and determined the relative level in model mice that analyzed by flow cytometry after the period of treating.
In vitro intracellular killing activities for the most promising six derivatives 2a, 2b, 2d, 3a, 8, and 11 were performed according to reported methods.

[19] = tested on: Salmonella typhi (S. typhi ATCC 6539); assay: microbe, parasite or virus in culture; assay type: cell-based; conditions: Salmonella enterica, Salmonella typhi
E. coli ATCC BAA-196 [20] = assay: MIC and MBC against multidrug-resistant strains; assay type: cell-based; conditions: E. coli ATCC BAA-196
Excerpt: as §2
(§3) The experiment was repeating for three-times.

S. aureus ATCC 33591 [21] = assay: MIC and MBC against multidrug-resistant strains; assay type: cell-based; conditions: Staphylococcus aureus, ATCC33591, S. aureus ATCC 33591; for MBC: read-out: MBC; for MIC: read-out: MIC
Excerpt: as §2, §3

[22] = tested on: P. aeruginosa ATCC BAA-2111; assay: MIC and MBC against multidrug-resistant strains; assay type: cell-based; conditions: P. aeruginosa ATCC BAA-2111
Excerpt: as §2, §3

S. aureus ATCC 43300 [23] = assay: MIC and MBC against multidrug-resistant strains; assay type: cell-based; conditions: Staphylococcus aureus, ATCC43300, S. aureus ATCC 43300; for MBC: read-out: MBC; for MIC: read-out: MIC
Excerpt: as §2, §3

C. albicans (ATCC 10231) [24] = assay: MIC and MFC determination; assay type: cell-based
MDRB strains = assay: MIC and MBC, ranges over the MDRB panel; assay type: cell-based; conditions: four MDRB strains
Excerpt: as §2, §3

[25] = Escherichia coli, ATCCBAA196, read-out: MBC
[26] = Escherichia coli, ATCCBAA196, read-out: MIC
[27] = Pseudomonas aeruginosa, ATCCBAA2111, read-out: MBC
[28] = Pseudomonas aeruginosa, ATCCBAA2111, read-out: MIC

Chain of S. aureus DNA gyrase (P20831 whole entry): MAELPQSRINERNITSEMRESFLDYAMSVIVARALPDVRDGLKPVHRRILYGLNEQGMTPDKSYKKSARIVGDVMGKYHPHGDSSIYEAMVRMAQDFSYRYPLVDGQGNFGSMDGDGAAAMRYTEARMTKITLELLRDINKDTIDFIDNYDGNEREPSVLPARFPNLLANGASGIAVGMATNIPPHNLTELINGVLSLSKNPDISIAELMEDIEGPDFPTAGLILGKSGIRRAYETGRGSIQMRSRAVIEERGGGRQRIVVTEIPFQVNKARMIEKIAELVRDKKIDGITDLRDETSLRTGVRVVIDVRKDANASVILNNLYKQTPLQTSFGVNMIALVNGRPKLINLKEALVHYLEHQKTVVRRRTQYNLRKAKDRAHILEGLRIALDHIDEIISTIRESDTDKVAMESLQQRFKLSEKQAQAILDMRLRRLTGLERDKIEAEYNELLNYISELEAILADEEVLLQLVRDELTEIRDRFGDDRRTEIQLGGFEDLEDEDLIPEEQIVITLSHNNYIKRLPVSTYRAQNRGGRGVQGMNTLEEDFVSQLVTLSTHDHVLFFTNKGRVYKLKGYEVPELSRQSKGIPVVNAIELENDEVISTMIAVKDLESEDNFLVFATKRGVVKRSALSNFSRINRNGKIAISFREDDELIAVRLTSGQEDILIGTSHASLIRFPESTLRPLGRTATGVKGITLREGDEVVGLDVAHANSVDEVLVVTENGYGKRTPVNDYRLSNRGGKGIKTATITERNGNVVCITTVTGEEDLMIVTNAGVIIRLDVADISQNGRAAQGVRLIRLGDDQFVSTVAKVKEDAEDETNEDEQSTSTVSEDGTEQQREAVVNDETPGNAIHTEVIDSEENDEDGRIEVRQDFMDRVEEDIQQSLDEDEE
Chain of S. aureus DNA gyrase (P0A0K8 whole entry): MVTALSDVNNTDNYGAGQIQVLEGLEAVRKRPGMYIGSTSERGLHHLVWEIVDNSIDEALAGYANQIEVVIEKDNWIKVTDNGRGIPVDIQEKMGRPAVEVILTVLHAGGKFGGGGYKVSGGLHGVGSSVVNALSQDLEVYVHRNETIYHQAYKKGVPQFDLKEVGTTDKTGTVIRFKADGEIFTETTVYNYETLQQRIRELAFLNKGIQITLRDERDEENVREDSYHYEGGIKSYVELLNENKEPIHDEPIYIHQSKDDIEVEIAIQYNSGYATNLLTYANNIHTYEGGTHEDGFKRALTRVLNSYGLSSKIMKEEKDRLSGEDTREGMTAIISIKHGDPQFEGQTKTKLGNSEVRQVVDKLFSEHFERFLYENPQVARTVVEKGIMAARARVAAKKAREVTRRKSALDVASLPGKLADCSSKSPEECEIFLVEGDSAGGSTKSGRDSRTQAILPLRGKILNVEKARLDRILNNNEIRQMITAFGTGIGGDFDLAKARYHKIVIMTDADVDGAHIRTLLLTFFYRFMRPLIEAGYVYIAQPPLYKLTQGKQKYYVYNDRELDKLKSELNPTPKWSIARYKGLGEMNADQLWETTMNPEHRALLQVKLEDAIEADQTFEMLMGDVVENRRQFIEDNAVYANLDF

N=C(N)NS(=O)(=O)c1ccc(NC(=O)c2cc3ccccc3oc2=N)cc1 [Compound 11, N-(4-(N-Carbamimidoylsulfamoyl)phenyl)-2-imino-2H-chromene-3-carboxamide]
MBC (P. aeruginosa ATCC 27853 [1]; read-out: MBC): 144 ± 1.47 µM (≈ 55.5 µg/mL) | MIC (P. aeruginosa ATCC 27853 [1]; read-out: MIC): 72 ± 0.96 µM (≈ 27.8 µg/mL) | MBC (S. aureus ATCC 29213 [2]; read-out: MBC): 40.5 ± 1.02 µM (≈ 15.6 µg/mL) | MIC (S. aureus ATCC 29213 [2]; read-out: MIC): 20.3 ± 0.67 µM (≈ 7.81 µg/mL) | IC50 (S. aureus DNA gyrase): 39.4 ± 1.15 µM | MFC/MIC [3]: <2 | MFC ([3]; Fusarium oxysporum, RCMB008002, read-out: MFC): 145.9 ± 1.25 µM (≈ 56.2 µg/mL) | MIC ([3]; Fusarium oxysporum, RCMB008002, read-out: MIC): 81.08 ± 0.54 µM (≈ 31.2 µg/mL) | MBC (E. coli ATCC 25922 [4]; read-out: MBC): 40.5 ± 0.75 µM (≈ 15.6 µg/mL) | MIC (E. coli ATCC 25922 [4]; read-out: MIC): 20.3 ± 0.36 µM (≈ 7.81 µg/mL) | MBC (B. subtilis ATCC 6633 [5]; read-out: MBC): 17.2 ± 0.54 µM (≈ 6.63 µg/mL) | MIC (B. subtilis ATCC 6633 [5]; read-out: MIC): 10.1 ± 0.68 µM (≈ 3.9 µg/mL) | Mean Diameter of the Inhibition Zone (B. subtilis ATCC 6633 [6]): 28 ± 0.11 mm | Mean Diameter of the Inhibition Zone (C. albicans (ATCC 10231) [7]): 22 ± 0.21 mm | Mean Diameter of the Inhibition Zone (S. typhi ATCC 6539): 18 ± 0.36 mm | Mean Diameter of the Inhibition Zone (E. coli ATCC 25922 [8]): 25 ± 0.43 mm | Mean Diameter of the Inhibition Zone (P. aeruginosa ATCC 27853 [9]): 24 ± 0.13 mm | Mean Diameter of the Inhibition Zone (E. faecalis ATCC 29212 [10]): 29± 0.54 mm | Mean Diameter of the Inhibition Zone [11]: 18 ± 0.45 mm | Mean Diameter of the Inhibition Zone (S. aureus ATCC 29213 [12]): 24 ± 0.29 mm | Spleen index (spleen and thymus): 0.008 ± 0.00 | Spleen weight (spleen and thymus): 190 ± 0.074 mg | Thymus index (spleen and thymus): 0.455 ± 0.07 mg/g | Thymus weight (spleen and thymus): 13.67 ± 0.53 mg | Mean Diameter of Inhibition Zone (E. coli ATCC BAA-196 [13]): 19 ± 0.88 mm | Mean Diameter of Inhibition Zone (S. aureus ATCC 33591 [14]): 22 ± 0.65 mm | Mean Diameter of Inhibition Zone [15]: 23 ± 0.25 mm | Mean Diameter of Inhibition Zone (S. aureus ATCC 43300 [16]): 17 ± 0.3 mm | MBC (E. faecalis ATCC 29212 [17]; read-out: MBC): 81.1 ± 0.98 µM (≈ 31.2 µg/mL) | MIC (E. faecalis ATCC 29212 [17]; read-out: MIC): 40.5 ± 0.74 µM (≈ 15.6 µg/mL) | T cells CD4+ [18]: 75.20 ± 0.97% | T cells CD8+ [18]: 24.05 ± 0.32% | MBC ([19]; read-out: MBC): 94.7 ± 0.79 µM (≈ 36.5 µg/mL) | MIC ([19]; read-out: MIC): 48 ± 0.85 µM (≈ 18.5 µg/mL) | MBC (E. coli ATCC BAA-196 [20]; [25]): 48 ± 0.81 µM (≈ 18.5 µg/mL) | MIC (E. coli ATCC BAA-196 [20]; [26]): 24 ± 0.49 µM (≈ 9.25 µg/mL) | MBC (S. aureus ATCC 33591 [21]): 19.2 ± 0.65 µM (≈ 7.41 µg/mL) | MIC (S. aureus ATCC 33591 [21]): 10.1 ± 0.29 µM (≈ 3.9 µg/mL) | MBC [22, 27]: 81.1 ± 0.86 µM (≈ 31.2 µg/mL) | MIC [22, 28]: 40.5 ± 0.74 µM (≈ 15.6 µg/mL) | MBC (S. aureus ATCC 43300 [23]): 81.1 ± 0.85 µM (≈ 31.2 µg/mL) | MIC (S. aureus ATCC 43300 [23]): 40.52 ± 0.36 µM (≈ 15.6 µg/mL) | MFC/MIC (C. albicans (ATCC 10231) [24]): <2 | MFC (C. albicans (ATCC 10231) [24]; Candida albicans, ATCC10231, read-out: MFC): 45.6 ± 0.47 µM (≈ 17.6 µg/mL) | MIC (C. albicans (ATCC 10231) [24]; Candida albicans, ATCC10231, read-out: MIC): 24 ± 0.41 µM (≈ 9.25 µg/mL)

CCn1cc(C(=O)O)c(=O)c2cc(F)c(N3CCNCC3)cc21 [Norfloxacin, reference compound]
Mean Diameter of Inhibition Zone (E. coli ATCC BAA-196 [13]): 27 ± 0.98 mm | Mean Diameter of Inhibition Zone (S. aureus ATCC 33591 [14]): 26 ± 0.5 mm | Mean Diameter of Inhibition Zone [15]: 24 ± 0.47 mm | Mean Diameter of Inhibition Zone (S. aureus ATCC 43300 [16]): 25 ± 0.5 mm | MBC range (MDRB strains): 4.38 to 16.65 µM | MIC range (MDRB strains): 2.44 to 9.80 µM | MBC (E. coli ATCC BAA-196 [20]; listed as Nor.): 8.32 ± 0.47 µM (≈ 2.66 µg/mL) | MIC (E. coli ATCC BAA-196 [20]; listed as Nor.): 4.91 ± 0.69 µM (≈ 1.57 µg/mL) | MBC (E. coli ATCC BAA-196 [20]; [25]): 8.32 µM (≈ 2.66 µg/mL) | MIC (E. coli ATCC BAA-196 [20]; [26]): 4.91 µM (≈ 1.57 µg/mL) | MBC (S. aureus ATCC 33591 [21]): 4.38 ± 0.49 µM (≈ 1.4 µg/mL) | MIC (S. aureus ATCC 33591 [21]): 2.44 ± 0.45 µM (≈ 0.779 µg/mL) | MBC ([22]; listed as Nor.): 16.65 ± 0.19 µM (≈ 5.32 µg/mL) | MIC ([22]; listed as Nor.): 9.80 ± 0.41 µM (≈ 3.13 µg/mL) | MBC [22, 27]: 16.6 µM (≈ 5.32 µg/mL) | MIC [22, 28]: 9.8 µM (≈ 3.13 µg/mL) | MBC (S. aureus ATCC 43300 [23]): 7.82 ± 0.32 µM (≈ 2.5 µg/mL) | MIC (S. aureus ATCC 43300 [23]): 3.91 ± 0.21 µM (≈ 1.25 µg/mL)
